Values quoted from earlier work, collected in US20150119339A1, “USE OF HMB TO IMPROVE HEALTH OUTCOMES FOR HOSPITALIZED PATIENTS” (ABBOTT LABORATORIES, priority 2012, published 2015).

Settings: three grams of HMB; older (70±1 yr) men and women; 10 days voluntary bed rest; not statistically different

Question: Which “loss of lean body mass” value does the source give for `CC(C)(O)CC(=O)O` [HMB, 3-hydroxy-3-methylbutanoic acid] here?
Answer: less loss of lean body mass
